Assay results reported in article PMC9025555, “Chiral Recognition R- and RS- of New Antifungal: Complexation/Solubilization/Dissolution Thermodynamics and Permeability Assay” (Pharmaceutics, 2022).
≈ marks a conversion by molar mass, not a printed value.

Assays:
[1] = Phase solubility study (shake-flask) in buffers with 2-HP-β-CD; conditions: pH 7.4; for Experimental solubility (S2): S2 10^4/M
Method: An excess amount of the substance was placed in the glass screw-capped vials with the solvent. The vials were stirred in an air thermostat for a certain period of time (a period of 3 days was estimated to be enough for reaching the equilibrium between the solid and the solvent). Then, the saturated solutions were kept in a thermostat in mild conditions no less than 12 h and thereafter centrifuged at a fixed temperature (Biofuge pico, Thermo Electron LED GmbH, Langenselbold, Germany) for 10 min at 12,000 rpm. […] The experimental results were reported as an average of at least three replicated experiments. Temperature uncertainty was ±0.1 K. The sensitivity of UV spectroscopic determinations was characterized by the values of the limit of detection (LOD)/limit of quantification (LOQ).

[2] = Thermodynamics of complexation, solubilization and inherent dissolution (mole fraction scale); format: physicochemical; conditions: for Gibbs free energy of transfer from pure buffer pH 2.0 to CD solution: Eq. (10)
Method: The Gibbs energy change of the inherent (in pure aqueous buffer without CD) dissolution ( ΔGinh/sol0,X ) in mole fraction scale was derived from the compound mole fraction solubility ( X20 ) in the following way:(8) ΔGinh/sol0,X=−RTlnX20
The standard solution enthalpies ΔHinh/sol0,X and entropies ΔSinh/sol0,X were calculated using a linear dependence between lnX20 and 1/T and van’t Hoff equation:(9) lnX20=−ΔHinh/sol0,X/RT+ΔSinh/sol0,X/R
The free energy of transferring a compound from the aqueous buffer solution to the CD solution of a certain CD concentration ( CCD ) (corresponds to solubilization process) was calculated by Equation (10):(10) ΔGslbz0,X(CCD)=−RTlnX2/X20, where X20 is the inherent solubility of the drug in mole fraction in the absence of CD at temperature T, and X2 is the total solubility in the presence of CD at the same temperature, R is the universal gas constant. The solubilization enthalpy ( ΔHslbz0,X(CCD) ) and entropy ( TΔSslbz0,X(CCD) ) were derived as follows:(11) ΔHslbz0,X(CCD)=ΔHsol0,X(CCD)−ΔHsol0,X (12) TΔSslbz0,X(CCD)=TΔSsol0,X(CCD)−TΔSsol0,X where ΔHsol0,X and ΔSsol0,X are the enthalpy and entropy of solubility process of the investigated compounds in the absence of CD, whereas ΔHsol0,X(CCD) and ΔSsol0,X(CCD) are the enthalpy and entropy of solubility process in the presence of CD with concentration CCD .
In order to determine the thermodynamic parameters of the complex formation for the compounds with CD, the stability constants ( KCX , mole fraction scale) at different temperatures were obtained using the phase diagrams and mole fractions ( X20 ) (analogously to Equation (3) by the following equation:(13) KCX=slope/X20⋅(1−slope),
Respectively, the Gibbs energy of the complexation in mole fraction scale ( ΔGC0,X ) was derived from the stability constants ( KCX ) in the following way:(14) ΔGC0,X=−RTlnKCX
The thermodynamic parameters of the complexation, i.e., the standard enthalpy change ( ΔHC0,X ) and the standard entropy change ( ΔSC0,X ) were calculated with the help of the integral form of the van’t Hoff’s equation:(15) lnKCX=−ΔHC0,X/RT+ΔSC0,X/R where a plot of lnKCX versus 1/T produces Slope = −ΔHC0,X/R and intercept equal to ΔSC0,X/R .
In order to understand the contribution of the hydrophobic effect (desolvation) to the complexation process on a relative scale, the approach disclosing the correlation of the free energy of complex formation with the free energy of the substance solubility in the same buffer solution proposed by Al Omari et al. was applied. To this end, the Gibbs energy of complex formation ( ΔGCT,X ) and inherent dissolution ( ΔGinh/solT,X ) in mole fraction scale were used. A linear correlation between ΔGCT,X and ΔGsolT,X results in Equation (16):(16) ΔGCT,X=a⋅ΔGinh/solT,X+b where the slope (a) is the magnitude of the hydrophobic effect, and the intercept (b) is the structural factor. […]

[3] = buffer pH 2.0, 298.15 K, mole fraction scale
[4] = buffer pH 2.0 without CD, 298.15 K, mole fraction scale

O=C1S/C(=C\c2ccc(Cl)cc2)C(=O)N1CC(O)CN1CCN(CC(O)(Cn2cncn2)c2ccc(F)cc2F)CC1 (centres unmarked) [RS-186, (Z)-5-(4-chlorobenzylidene)-3-(3-(4-(2-(2,4-difluorophenyl)-2-hydroxy-3-(1H-1,2,4-triazol-1-yl)propyl)piperazin-1-yl)-2-hydroxypropyl)thiazolidine-2,4-dione]
Experimental solubility (S2) ([1]; 310.15 K, 2-HP-β-CD 0.03 M): 5.01 ± 0.05 10^4/M
Experimental solubility (S2) ([1]; 310.15 K, 2-HP-β-CD 0.04 M): 6.97 ± 0.08 10^4/M
Experimental solubility (S2) ([1]; 310.15 K, 2-HP-β-CD 0.05 M): 8.58 ± 0.08 10^4/M
Experimental solubility (S2) ([1]; 313.15 K, 2-HP-β-CD 0 M): 0.37 ± 0.01 10^4/M
Experimental solubility (S2) ([1]; 313.15 K, 2-HP-β-CD 0.01 M): 1.37 ± 0.06 10^4/M
Experimental solubility (S2) ([1]; 313.15 K, 2-HP-β-CD 0.03 M): 2.50 ± 0.03 10^4/M
Experimental solubility (S2) ([1]; 313.15 K, 2-HP-β-CD 0.04 M): 3.20 ± 0.05 10^4/M
Experimental solubility (S2) ([1]; 313.15 K, 2-HP-β-CD 0.05 M): 3.65 ± 0.05 10^4/M
order of the solubility ([1]; compared with reported FCZ and L-173): (FCZ) > (R-98 ≥ RS-186) >> (L-173)
solubility in pure buffer solution ([1]; pure buffer): 27 µM (≈ 16.7 µg/mL)
Gibbs free energy of transfer from pure buffer pH 2.0 to CD solution ([2]; CCD 0.01, 298.15 K): -4.73
Gibbs free energy of transfer from pure buffer pH 2.0 to CD solution ([2]; CCD 0.01, 303.15 K): -4.83
Gibbs free energy of transfer from pure buffer pH 2.0 to CD solution ([2]; CCD 0.01, 310.15 K): -5.12
Gibbs free energy of transfer from pure buffer pH 2.0 to CD solution ([2]; CCD 0.01, 313.15 K): -5.43
Gibbs free energy of transfer from pure buffer pH 2.0 to CD solution ([2]; CCD 0.03, 298.15 K): -6.90
Gibbs free energy of transfer from pure buffer pH 2.0 to CD solution ([2]; CCD 0.03, 303.15 K): -7.10
Gibbs free energy of transfer from pure buffer pH 2.0 to CD solution ([2]; CCD 0.03, 310.15 K): -7.36
Gibbs free energy of transfer from pure buffer pH 2.0 to CD solution ([2]; CCD 0.03, 313.15 K): -7.66
Gibbs free energy of transfer from pure buffer pH 2.0 to CD solution ([2]; CCD 0.04, 298.15 K): -7.64
Gibbs free energy of transfer from pure buffer pH 2.0 to CD solution ([2]; CCD 0.04, 303.15 K): -7.84
Gibbs free energy of transfer from pure buffer pH 2.0 to CD solution ([2]; CCD 0.04, 310.15 K): -8.15
Gibbs free energy of transfer from pure buffer pH 2.0 to CD solution ([2]; CCD 0.04, 313.15 K): -8.52
Gibbs free energy of transfer from pure buffer pH 2.0 to CD solution ([2]; CCD 0.05, 298.15 K): -8.22
Gibbs free energy of transfer from pure buffer pH 2.0 to CD solution ([2]; CCD 0.05, 303.15 K): -8.43
Gibbs free energy of transfer from pure buffer pH 2.0 to CD solution ([2]; CCD 0.05, 310.15 K): -8.75
Gibbs free energy of transfer from pure buffer pH 2.0 to CD solution ([2]; CCD 0.05, 313.15 K): -9.06
slope (a) of ΔGC versus ΔGsol correlation, magnitude of the hydrophobic effect ([2]; Equation (16), pH 2.0, mole fraction scale): −0.611
solubilization: change of the standard Gibbs energy (ΔGslbz0,X) ([2]; buffer pH 2.0, 298.15 K, calculated at maximal 0.05 M CD concentration): -1.96 kcal/mol
change of the standard Gibbs energy of inclusion complex formation (ΔGC0,X) [2, 3]: -3.7 kcal/mol
enthalpy of inclusion complex formation (ΔHC0,X) [2, 3]: -2.22 ± 0.311 kcal/mol
entropy of inclusion complex formation (TΔSC0,X) [2, 3]: 1.48 ± 0.22 kcal/mol
solubilization entropy (TΔSslbz0,X) [2, 3]: 3.59 ± 0.789 kcal/mol
inherent solubility Gibbs energy (ΔGinh/sol0,X) [2, 4]: 7.17 kcal/mol
inherent solubility enthalpy (ΔHinh/sol0,X) [2, 4]: 4.54 ± 0.526 kcal/mol
inherent solubility entropy (TΔSinh/sol0,X) [2, 4]: -2.63 ± 0.359 kcal/mol
ratio |ΔHC0,X| > |TΔSC0,X| ([2]; complexation, pH 2.0, 298.15 K): about 1.5 fold
Complexation constant (KCX) ([2]; mole fraction scale, buffer pH 2.0, 298.15 K): 525.2 ± 52.9
contribution of the hydrophobic interactions to the driving force for complex stability ([2]; pH 2.0): ~61%
